In patent US20250255981A1, “IMMUNOMODULATORY ANTIBODY-DRUG CONJUGATES” (Seagen Inc., priority 2022, published 2025):

What was measured:
[1] = system: Renca cancer cells; assay: In vivo anti-tumor activity, Renca tumor model
Procedure: In some experiments, Renca tumor cells were engineered to express the indicated murine or human target antigen.
(§1) When tumor volumes reached 100 mm^3, the mice were dosed with either compounds or ADCs by intraperitoneal or intravenous injection at the indicated dosing schedule and tumor volumes were monitored twice weekly. Compounds were formulated in 40% PEG400 in saline.
(§2) A syngeneic system was used to assess the ability of the STING agonist ADCs to induce immune responses in vivo and drive an anti-tumor immune response. The Renca system is a subcutaneous, mouse renal adenocarcinoma model. Female Balb/c mice were implanted with 2×10^6 Renca cells subcutaneously in the flank on day 0. When mean tumor size of 100 mm^3 (measured by using the formula Volume (mm^3)=0.5*Length*Width^2 where length is the longer dimension) was reached mice were randomized into treatment groups of ≥5 mice per group. Animals were then treated intraperitoneally (ADCs or compounds) or intravenously (compounds) with the indicated treatment every 7 days, for 3 doses total (or as indicated). Tumor length and width and the weight of the animals was measured throughout the study and tumor volume was calculated using the formula above. Animals were followed until the tumor volume reached ˜1000 mm^3; animals were then euthanized.

[2] = system: Renca tumor-bearing mice; assay: In vivo cytokine assay, Renca tumor-bearing mice; set-up: species or system mouse; RANTES in plasma / TNFa in plasma: unit not given here; settings: for IFNγ in plasma / IL1β in plasma / IL12p70 in plasma / IL-6 in plasma / IL-10 in plasma / IP10 in plasma / MCP-1 in plasma / MIP1α in plasma / MIP1β in plasma / RANTES in plasma / TNFa in plasma: 1.48 mg/kg
Procedure: Cytokines were measured in mouse plasma harvested at 3, 6, 24, or 48 hours after treatment with compounds or ADCs using a Milliplex MAP mouse cytokine/chemokine magnetic bead panel assay kit (MCYTOMAG-70k custom 11-plex kit: MCP1, MIP1a, MIP1(3, TNFα, IFNγ, IL-10, IL-12p70, IL-6, IL-1β, IP10, RANTES) and analyzed using a Luminex™ MAGPIX™ Instrument System. Values that were outside of the standard curve range (<3.2 or […]) were either excluded from calculation of the mean values or, when indicated, converted to […] for calculation of the mean values.
Renca cancer cells (ATCC) were cultured in RPMI-1640 (ATCC) with 10% heat-inactivated fetal bovine serum, Pen-Strep (100 U/mL-100 μg/mL), MEM non-essential amino acids (1×), sodium pyruvate (1 mM), and L-glutamine (2 mM). Renca cancer cells were implanted (2*10^6 cells in 200 μL 25% Matrigel) subcutaneously into Balb/c female mice. In some experiments, Renca tumor cells were engineered to express the indicated murine or human target antigen.
as §1, §2

[3] = system: CT26 cancer cells; assay: In vivo anti-tumor activity, CT26 tumor model; set-up: species or system mouse; settings: CT26, q7dx3
Procedure: CT26 cancer cells (ATCC) were cultured in RPMI 1640 modified with 1 mM Sodium Pyruvate, 10 mM HEPES, 2.8 mL 45% Glucose (1.25 g) and supplemented with 10% fetal bovine serum and 1% Pen/Strep/Glutamine. CT26 cancer cells were implanted (0.5*10^6 cells in 200 uL serum-free RPMI 1640) subcutaneously into Balb/c mice.

[4] = system: wild type (WT) murine bone marrow-derived macrophages; assay: Bone marrow-derived macrophage assay, wild type; type: cell-based, mouse; settings: 24 hours
Procedure: Potency of the compounds described herein was evaluated using mouse bone-marrow derived macrophages cultured from wild type (C57BL/6J, the Jackson Laboratory #000664) or STING-deficient (C57BL/6J-Sting1^gt/J, the Jackson Laboratory #017537) mice. Briefly, mouse bone marrow cells were cultured for 7-10 days in RPMI-1640 (Gibco) with 10% heat-inactivated fetal bovine serum, Pen-Strep (100 U/mL-100 […], Gibco), HEPES (10 mM, Gibco), sodium pyruvate (1 mM, Gibco), GlutaMAX (1×, Gibco), beta-mercaptoethanol ([…], Gibco) and 20-40 ng/mL murine M-CSF (Peprotech, #315-02). Cells were plated in a 96-well flat bottom tissue culture-treated clear polystyrene plate (Corning Costar #3596) at ˜100,000 cells per well in 200 μL with the indicated concentration of the compound. The supernatant was harvested at 24 hours and cytokines were measured using a Milliplex MAP mouse cytokine/chemokine magnetic bead panel assay kit (MCYTOMAG-70k custom 11-plex kit: MCP1, MIP1α, MIP1β, TNFα, IFNγ, IL-10, IL-12p70, IL-1β, IL-6, IP10, RANTES) and analyzed using a Luminex™ MAGPIX™ Instrument System.

[5] = system: THP1-Dual™ cells (IRF-Lucia luciferase reporter); assay: THP1-Dual™ cell reporter assay; type: cell-based, human
Procedure, shortened: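 THP1-Dual cells (~100,000 per well) exposed to compound or ADC in supplemented RPMI-1640 with 10% FBS; supernatant taken at 24 h for compounds or 48 h for ADCs. Secreted IRF-driven Lucia luciferase measured by luminescence with QUANTI-Luc reagent.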

[6] = system: MOLM-13; assay: Cancer cell direct cytotoxicity assay, MOLM-13; type: cell-based, human; settings: 96 hours, read-out: Compound X50
Procedure: (§3) Cancer cells were counted and plated in 40 μL complete growth media in 384-well, white-walled tissue culture treated plates (Corning). Cell plates were incubated at 37° C. and with 5% CO2 overnight to allow the cells to equilibrate. Stock solutions containing ADCs or free drugs were serially diluted in RPMI-1640+20% fetal bovine serum (FBS). 10 μL of each concentration were then added to each cell plate in duplicate. Cells were then incubated at 37° C. and with 5% CO2 for 96 hours, upon which, the cell plates were removed from the incubator and allowed to cool to room temperature for 30 minutes prior to analysis. CellTiter-Glo® luminescent assay reagent (Promega Corporation, Madison, WI) was prepared according to Promega's protocol. 10 μL of CellTiter-Glo® were added to assay plates using a Formulatrix Tempest liquid handler (Formulatrix) and the plates were protected from light for 30 minutes at room temperature. The luminescence of the samples was measured using an EnVision Multimode plate reader (Perkin Elmer, Waltham, MA). Raw data were analyzed in Graphpad Prism (San Diego, CA) using a nonlinear, 4-parameter curve fit model [Y=Bottom+(Top-Bottom)/(1+10^((Log EC50−X)*HillSlope))]. Results are reported as X50 values, which are defined as the concentration of ADC or free drug required to reduce cell viability to 50%.

[7] = system: Ls174T; assay: Cancer cell direct cytotoxicity assay, Ls174T; type: cell-based, human; settings: 96 hours, read-out: Compound X50
Procedure: as §3

[8] = system: A2058; assay: Cancer cell direct cytotoxicity assay, A2058; type: cell-based, human; settings: 96 hours, read-out: Compound X50
Procedure: as §3

[9] = system: DEL; assay: Cancer cell direct cytotoxicity assay, DEL; type: cell-based, human; settings: 96 hours, read-out: Compound X50
Procedure: as §3

[10] = system: BxPC3; assay: Cancer cell direct cytotoxicity assay, BxPC3; type: cell-based, human; settings: 96 hours, read-out: Compound X50
Procedure: as §3

[11] = system: SU-DHL-4; assay: Cancer cell direct cytotoxicity assay, SU-DHL-4; type: cell-based, human; settings: 96 hours, read-out: Compound X50
Procedure: as §3

[12] = system: 786-O; assay: Cancer cell direct cytotoxicity assay, 786-O; type: cell-based, human; settings: 96 hours, concentration required to reduce cell viability to 50%, read-out: Compound X50
Procedure: as §3

[13] = system: DELBVR; assay: Cancer cell direct cytotoxicity assay, DELBVR; type: cell-based, human; settings: 96 hours, read-out: Compound X50
Procedure: as §3

[14] = system: MDAMB231; assay: Cancer cell direct cytotoxicity assay, MDAMB231; type: cell-based, human; settings: 96 hours, read-out: Compound X50
Procedure: as §3

[15] = system: Karpas299; assay: Cancer cell direct cytotoxicity assay, Karpas299; type: cell-based, human; settings: 96 hours, read-out: Compound X50
Procedure: as §3

[16] = system: L540cy; assay: Cancer cell direct cytotoxicity assay, L540cy; type: cell-based, human; settings: 96 hours, read-out: Compound X50
Procedure: as §3

In the case of CCn1nc(C)cc1C(=O)Nc1nc2cc(C(N)=O)cc(O)c2n1C/C=C/Cn1c(NC(=O)c2cc(C)nn2CC)nc2cc(C(N)=O)cc(OC)c21 [compound 1, (E)-1-(4-(5-carbamoyl-2-(1-ethyl-3-methyl-1H-pyrazole-5-carboxamido)-7-hydroxy-1H-benzo[d]imidazol-1-yl)but-2-en-1-yl)-2-(1-ethyl-3-methyl-1H-pyrazole-5-carboxamido)-7-methoxy-1H-benzo[d]imidazole-5-carboxamide], the “tumor growth / anti-tumor activity” value ([1]; Renca, q7dx3) is reported as “some tumor growth delay was observed”, the average weight loss ([1]; after the 1st and 2nd dose of the treatment) is reported as less than −5% and the IFNγ in plasma ([2]; 3 h after treatment) is reported as less than 3.2 pg/mL. It also gave an IL1β in plasma ([2]; 3 h after treatment) of 0.7 pg/mL, an IL12p70 in plasma ([2]; 3 h after treatment) of 174 pg/mL and an IL-6 in plasma ([2]; 3 h after treatment) of 95.7 pg/mL. For the same compound, the IL-10 in plasma ([2]; 3 h after treatment) was 48.8 pg/mL, the IP10 in plasma ([2]; 3 h after treatment) was 703 pg/mL and the MCP-1 in plasma ([2]; 3 h after treatment) was 168 pg/mL. It also gave an MIP1α in plasma ([2]; 3 h after treatment) of 55.6 pg/mL, an MIP1β in plasma ([2]; 3 h after treatment) of 362 pg/mL and an RANTES in plasma ([2]; 3 h after treatment) of 10.6. It also gave a TNFa in plasma ([2]; 3 h after treatment) of 3.6, an IFNγ in plasma ([2]; 6 h after treatment) of 0.2 pg/mL and an IL1β in plasma ([2]; 6 h after treatment) of 1.5 pg/mL. The IL12p70 in plasma ([2]; 6 h after treatment) was less than 3.2 pg/mL, the IL-6 in plasma ([2]; 6 h after treatment) was 6.8 pg/mL and the IL-10 in plasma ([2]; 6 h after treatment) was 0.8 pg/mL. It also gave an IP10 in plasma ([2]; 6 h after treatment) of 3390 pg/mL, an MCP-1 in plasma ([2]; 6 h after treatment) of 796 pg/mL and an MIP1α in plasma ([2]; 6 h after treatment) of 38.9 pg/mL. It also gave an MIP1β in plasma ([2]; 6 h after treatment) of 169 pg/mL, an RANTES in plasma ([2]; 6 h after treatment) of 18.4 and a TNFa in plasma ([2]; 6 h after treatment) of 1.9. It also gave an IFNγ in plasma ([2]; 24 h after treatment) of less than 3.2 pg/mL, an IL1β in plasma ([2]; 24 h after treatment) of 0.8 pg/mL and an IL12p70 in plasma ([2]; 24 h after treatment) of 140 pg/mL. For the same compound, the IL-6 in plasma ([2]; 24 h after treatment) was 13.5 pg/mL, the IL-10 in plasma ([2]; 24 h after treatment) was 34.6 pg/mL and the IP10 in plasma ([2]; 24 h after treatment) was 551 pg/mL. It also gave an MCP-1 in plasma ([2]; 24 h after treatment) of 333 pg/mL, an MIP1α in plasma ([2]; 24 h after treatment) of 69.9 pg/mL and an MIP1β in plasma ([2]; 24 h after treatment) of 70.7 pg/mL. For the same compound, the RANTES in plasma ([2]; 24 h after treatment) was 15.6, the TNFa in plasma ([2]; 24 h after treatment) was 2.0 and the “systemic pro-inflammatory cytokine (IL-6 and TNF) production” value ([2]; plasma) was “induced very little pro-inflammatory cytokine (IL-6 and TNF) production”. The “tumor growth” value [3] was “minimal tumor growth delay”, the “cytokine production” value [4] was “induced cytokine production” and the “relative potency of free drug, Lucia reporter” value ([5]; free drug, 24 h (48 h elsewhere in the source)) was “significantly more potent than (2′, 3′)-Rp,Rpc-diAMPS disodium (Compound B)”.

In the case of CCn1nc(C)cc1C(=O)Nc1nc2cc(C(N)=O)cc(OC)c2n1C/C=C/Cn1c(NC(=O)c2cc(C)nn2CC)nc2cc(C(N)=O)cc(OCCCN(C)C(=O)CCN3C(=O)CC(SC[C@H](N)C(=O)O)C3=O)c21 (stereo partly drawn) [compound 16], the IC50 [6] is reported as 27 nM, the IC50 [7] is reported as greater than 1000 nM and the IC50 [8] is reported as greater than 1000 nM. For the same compound, the IC50 [9] was 4 nM, the IC50 [10] was greater than 1000 nM and the IC50 [11] was greater than 1000 nM. For the same compound, the IC50 [12] was greater than 1000 nM, the IC50 [13] was 7 nM and the IC50 [14] was greater than 1000 nM. For the same compound, the IC50 [15] was greater than 1000 nM, the EC50 ([5]; small molecules, 24 h, >10,000 nM = minimal activity up to 10 μM, some values average of multiple experiments, read-out: EC50, Lucia reporter signal) was 52 nM and the IC50 [16] was 29 nM.
